For orientation: EC50 means the concentration at which the effect is half-maximal.

Counter-ions that a name gives are not always drawn. A value given as a limit tells only on which side of the number the result lay.

This passage reports EC50 results from BindingDB's records for doi:10.7270/Q2ZC817P (The Scripps Research Institute Molecular Screening Center, 2007).

Chain of Sphingosine 1-phosphate receptor 1 (P21453 whole entry): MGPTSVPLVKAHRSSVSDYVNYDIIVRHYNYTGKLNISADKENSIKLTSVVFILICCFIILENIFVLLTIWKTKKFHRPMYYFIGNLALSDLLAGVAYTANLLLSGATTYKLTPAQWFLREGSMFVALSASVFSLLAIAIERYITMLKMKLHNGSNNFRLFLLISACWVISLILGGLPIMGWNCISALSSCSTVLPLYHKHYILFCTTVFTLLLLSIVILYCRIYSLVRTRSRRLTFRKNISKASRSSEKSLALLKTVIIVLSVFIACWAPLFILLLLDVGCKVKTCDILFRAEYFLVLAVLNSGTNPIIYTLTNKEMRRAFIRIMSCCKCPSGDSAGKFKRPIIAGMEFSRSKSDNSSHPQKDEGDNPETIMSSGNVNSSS

The first experiment concerns the target Sphingosine 1-phosphate receptor 1 (Homo sapiens, UniProt P21453). The experiment in a line: S1P1 agonism potentiation – cell-based, potentiator mode, 60K MLSMR set, dose response (AID 466).
Conditions: not given
`O=C1C2CCCN2C(c2cccnc2)N1c1cccc(Cl)c1` (centres undefined) [2-(3-chlorophenyl)-3-(3-pyridinyl)-5,6,7,7a-tetrahydro-3H-pyrrolo[1,2-c]imidazol-1-one]: the EC50 is greater than 95 µM.

Take `CN(C)c1oc(-c2ccc(OCc3ccccc3)cc2)nc1C#N` [2-(4-benzoxyphenyl)-5-(dimethylamino)oxazole-4-carbonitrile]: the EC50 was found to be 3.01 µM. On the same count and under the same terms, under `Cc1nn(C(=O)c2cccs2)c(N)c1-c1ccccc1` [(5-amino-3-methyl-4-phenyl-1-pyrazolyl)-thiophen-2-ylmethanone] stands 4.9 µM; under `Cc1cc(C)n2nc(SCC(=O)c3cc(C)n(-c4cc(C)on4)c3C)nc2n1` [1-[2,5-dimethyl-1-(5-methyl-1,2-oxazol-3-yl)pyrrol-3-yl]-2-[(5,7-dimethyl-[1,2,4]triazolo[1,5-a]pyrimidin-2-yl)sulfanyl]ethanone], 5.63 µM; under `Cc1ccc(-c2nnc(SCc3ccccc3F)o2)cc1` [2-[(2-fluorobenzyl)thio]-5-(4-methylphenyl)-1,3,4-oxadiazole], 1.14 µM. Same read-out and setting: in the case of `Nc1ccc(N2CCCCCC2)cc1` [4-(1-azepanyl)aniline;hydrochloride] it was greater than 30 µM. Same read-out and setting: under `CCCCOc1ncnc2c1[nH]c1ccccc12` [MLS000041483] stands 4.52 µM; under `Cc1cc(C(=O)CSc2nnnn2C)c(C)n1-c1cccc(F)c1` [1-[1-(3-fluorophenyl)-2,5-dimethyl-3-pyrrolyl]-2-[(1-methyl-5-tetrazolyl)thio]ethanone], 1.88 µM. `CCCN(C(=O)c1cccs1)c1nnc(-c2ccncc2)s1` [MLS000074637]: the EC50 stood at 2.96 µM.

`Cc1[nH]nc2c1C1(C(=O)N(Cc3ccc(Cl)cc3)c3ccccc31)C(C#N)C(=N)O2` (centres undefined) [6-amino-1'-[(4-chlorophenyl)methyl]-3-methyl-2'-oxo-5-spiro[2H-pyrano[2,3-c]pyrazole-4,3'-indole]carbonitrile]: the half-maximal effective concentration (EC50) is 43.6 µM. Same read-out and setting: under `O=C(CCC(=O)N(Cc1ccco1)C(C(=O)NC1CCCC1)c1ccncc1)Nc1cccnc1` (centres undefined) [MLS000033292] stands greater than 95 µM; under `OC1(c2cccc(C(F)(F)F)c2)CCN(c2ncnc3c2[nH]c2ccc(F)cc23)CC1` [1-(8-fluoranyl-5H-pyrimido[5,4-b]indol-4-yl)-4-[3-(trifluoromethyl)phenyl]piperidin-4-ol], 4.41 µM. Still for that read-out and setting: in the case of `CC(C)(C)C1CCC2(CC1)C(C#N)=C(SCC(=O)Nc1ccccc1)NC(=O)C2C#N` (centres undefined) [2-[(9-tert-butyl-1,5-dicyano-2-oxidanylidene-3-azaspiro[5.5]undec-4-en-4-yl)sulfanyl]-N-phenyl-ethanamide] it was 4.71 µM. The same measure, in the same setting: in the case of `COc1ccc2c(c1)CCc1c(C(=O)Nc3ccc(OC)c(OC)c3)noc1-2` [MLS000087452] it was 2.83 µM; in that of `COCCn1c(C)cc(C(=O)CSc2nc3ccccc3o2)c1C` [2-(1,3-benzoxazol-2-ylsulfanyl)-1-[1-(2-methoxyethyl)-2,5-dimethyl-pyrrol-3-yl]ethanone], greater than 95 µM; in that of `COc1ccccc1N=C(N)Nc1nc(CSc2ccc(C)cc2)cc(=O)[nH]1` [1-(2-methoxyphenyl)-2-[6-[[(4-methylphenyl)thio]methyl]-4-oxo-1H-pyrimidin-2-yl]guanidine], 9.15 µM.

As for `O=C(CSc1nnc(Cn2nnc3ccccc32)o1)N(Cc1ccc(F)cc1)c1ccccc1` [2-(5-Benzotriazol-1-ylmethyl-[1,3,4]oxadiazol-2-ylsulfanyl)-N-(4-fluoro-benzyl)-N-phenyl-acetamide], the EC50 came out at 4.86 µM.

For the compound `CCCc1ccc(Oc2c[nH]nc2-c2ccc(O)c(C)c2O)cc1` [SMR000024172], the EC50 came out at 14.9 µM. Same read-out and setting: under `C=CS(=O)(=O)c1ccc(Oc2ccc(S(=O)(=O)C=C)cc2)cc1` [1-ethenylsulfonyl-4-(4-ethenylsulfonylphenoxy)benzene] stands 3.31 µM. As to `Cc1cc(C(=O)N2CCN(C(c3ccccc3)c3ccccc3)CC2)on1` [(4-benzhydrylpiperazin-1-yl)-(3-methyl-1,2-oxazol-5-yl)methanone], the concentration for a half-maximal effect (EC50) came out at 5.65 µM. As to `O=C(CSc1nnc(Cc2csc(Nc3cccc(Cl)c3)n2)o1)N1CCc2ccccc21` [2-[[5-[[2-(3-chloroanilino)-1,3-thiazol-4-yl]methyl]-1,3,4-oxadiazol-2-yl]sulfanyl]-1-(2,3-dihydroindol-1-yl)ethanone], the EC50 is greater than 95 µM. On the same count and under the same terms, under `COc1ccc(N2CCn3c2nc2c3c(=O)n(CCCc3ccccc3)c(=O)n2C)c(OC)c1` [6-(2,4-dimethoxyphenyl)-4-methyl-2-(3-phenylpropyl)-7,8-dihydropurin[7,8-a]imidazole-1,3-quinone] stands 8.71 µM; under `CC(C)c1cc(C(F)(F)F)n2nc(C(=O)Nc3ccc4c(c3)OCO4)cc2n1` [5-Isopropyl-7-trifluoromethyl-pyrazolo[1,5-a]pyrimidine-2-carboxylic acid benzo[1,3]dioxol-5-ylamide], 2.84 µM; under `Cc1sc2ncnc(Sc3nnnn3-c3ccccc3)c2c1C` [5,6-dimethyl-4-(1-phenyltetrazol-5-yl)sulfanylthieno[2,3-d]pyrimidine], greater than 95 µM.

On to `CC(C)Oc1cc(O)c2c(=O)c(-c3ccc(O)cc3)coc2c1` [3-(4-hydroxyphenyl)-5-oxidanyl-7-propan-2-yloxy-chromen-4-one], for which the EC50 turned out to be 2.78 µM.

Consider `COC(=O)C1=CN(CCCN2CCCC2=O)C=C(C(=O)OC)C1c1ccccc1C(F)(F)F`, for which the EC50 is greater than 95 µM. Still for that read-out and setting: under `OC(c1cccc(OCc2ccccc2)c1)c1nnc(-c2ccccc2)o1` (centres undefined) [(3-benzoxyphenyl)-(5-phenyl-1,3,4-oxadiazol-2-yl)methanol] stands 2.65 µM. The same measure, in the same setting: under `CCOc1nc(C)ccc1-c1noc(-c2ccncc2)n1` [2-ethoxy-6-methyl-3-[5-(4-pyridinyl)-1,2,4-oxadiazol-3-yl]pyridine] stands 6.59 µM; under `CCOc1ccc(-c2nc(-c3ccncc3)no2)cc1OCC` [4-[5-(3,4-diethoxyphenyl)-1,2,4-oxadiazol-3-yl]pyridine], 0.226 µM; under `O=S(=O)(NCc1cn2ccsc2n1)c1ccc(Oc2ccccc2)cc1` [MLS000094195], 5 µM. Same read-out and setting: in the case of `Cc1cccc(NC(=O)Nc2ccc(C#N)cc2)n1` [1-(4-cyanophenyl)-3-(6-methyl-2-pyridinyl)urea] it was greater than 30 µM. As for `Cc1cc(C(=O)CSc2nnc(-c3cccs3)o2)c(C)n1-c1ccccc1` [1-(2,5-dimethyl-1-phenyl-3-pyrrolyl)-2-[(5-thiophen-2-yl-1,3,4-oxadiazol-2-yl)thio]ethanone], the EC50 came out at 4.19 µM. Still for that read-out and setting: in the case of `COC(=O)CS(=O)(=O)c1nnc([C@H](Cc2ccccc2)NC(=O)OC(C)(C)C)o1` [SMR000046685] it was 8.44 µM.

On to `CCCCOc1ccc(S(=O)(=O)Nc2cccnc2)cc1` [4-butoxy-N-(3-pyridinyl)benzenesulfonamide], for which the EC50 was 8.55 µM.

The same experiment, now with this note: inactive by the depositor's call.
For `CCCCOc1ccc(S(=O)(=O)Nc2cc(OC)ccc2OC)cc1` [4-butoxy-N-(2,5-dimethoxyphenyl)benzenesulfonamide], the EC50 came to 12.1 µM. In the case of `Cc1n[nH]c(C)c1N1C(=O)c2cccc3c(N4CCCCCC4)ccc(c23)C1=O`, the 50% effective concentration (EC50) was determined as 12.5 µM. Take `CCC(C)OC(=O)c1[nH]c2c(c1C)C(=O)CC(c1ccc(N(C)C)cc1)C2` (centres undefined) [MLS000116530]: the EC50 came to 18 µM. Same read-out and setting: in the case of `Cc1cccc(N2CCN(C(=O)C3CCCN(S(=O)(=O)c4cccc5cccnc45)C3)CC2)c1C` (centres undefined) [MLS000120299] it was 16.1 µM; in that of `CC(C)(C)NC(=O)CSc1ncnc2c1nnn2Cc1ccccc1Cl` [MLS000034488], 12.7 µM.

Take `O=c1oc2cc(Br)ccc2n1CSC1=NCCS1` [6-Bromo-3-(4,5-dihydro-thiazol-2-ylsulfanylmethyl)-3H-benzooxazol-2-one]: the EC50 was determined as 17.6 µM.

In the case of `CCN(CC)c1ccc(-n2c(C)c(C(C)=O)c(C(C)=O)c2C)cc1` [1-[1-[4-(diethylamino)phenyl]-4-ethanoyl-2,5-dimethyl-pyrrol-3-yl]ethanone], the EC50 is 10.4 µM. `COc1ccc2ncn(-c3ccccc3)c2c1` [6-methoxy-1-phenyl-1H-1,3-benzodiazole]: the EC50 was 23.6 µM. Still for that read-out and setting: in the case of `Cc1ccccc1OCC(=O)Nc1ccc(N2CCN(C(=O)C(C)C)CC2)c(Cl)c1` [MLS000034491] it was 15.2 µM; in that of `COc1cccc(-c2csc(N3CCN(CC(=O)Nc4ccc5c(c4)OCO5)CC3)n2)c1` [MLS000070935], 17.9 µM; in that of `O=C1CC(N2CCN(C/C=C/c3ccccc3)CC2)C(=O)N1CCc1ccccc1` (centres undefined) [1-(2-phenylethyl)-3-[4-[(E)-3-phenylprop-2-enyl]-1-piperazinyl]pyrrolidine-2,5-dione], 19.3 µM.

For the compound `CCCOC(=O)c1[nH]c2c(c1C)C(=O)CC(c1cc(OC)c(OC)c(OC)c1)C2` (centres undefined) [MLS000116504], the EC50 was determined as 12.9 µM. The same measure, in the same setting: in the case of `Cc1ccc(C(=O)c2cncc(Br)c2)cc1` [(5-bromanylpyridin-3-yl)-(4-methylphenyl)methanone] it was 12.6 µM; in that of `Cc1ccc(Cl)cc1N1CCN(C(=O)COc2ccc(S(=O)(=O)NC(C)C)cc2)CC1` [4-[2-[4-(5-chloranyl-2-methyl-phenyl)piperazin-1-yl]-2-oxidanylidene-ethoxy]-N-propan-2-yl-benzenesulfonamide], 13.1 µM. The same measure, in the same setting: under `CC(=O)c1sc(NC(=O)C2(F)C(F)(F)C(F)(F)C(F)(F)C(F)(F)C2(F)F)nc1C` [MLS000040071] stands 31.1 µM; under `O=C(Nc1ccc(C(F)(F)F)cc1)C1CCCN1S(=O)(=O)c1cccc2cccnc12` (centres undefined) [1-(8-quinolinylsulfonyl)-N-[4-(trifluoromethyl)phenyl]-2-pyrrolidinecarboxamide], 10.2 µM; under `CCCOC(=O)c1ccc(OCC(O)Cn2c(C)nc3ccccc32)cc1` (centres undefined) [4-[2-hydroxy-3-(2-methyl-1-benzimidazolyl)propoxy]benzoic acid propyl ester], 10 µM.

Regarding `Cc1nc2sc(-c3ccccc3)cc2c(=O)n1-n1cccc1` [2-methyl-6-phenyl-3-(1-pyrrolyl)-4-thieno[2,3-d]pyrimidinone], the EC50 was found to be 17.6 µM. For the compound `CCCC(=O)Nc1ccc(-c2nc3cc(C)c(C)cc3o2)cc1` [MLS000089940], the EC50 worked out at 10.8 µM. The same measure, in the same setting: in the case of `COc1ccccc1-n1nnnc1SCc1cc2c(cc1Br)OCO2` [5-[(6-bromanyl-1,3-benzodioxol-5-yl)methylsulfanyl]-1-(2-methoxyphenyl)-1,2,3,4-tetrazole] it was 36.2 µM.
